Data as given in ChEMBL document CHEMBL3992501, “Synthesis and biological evaluation of salinomycin triazole analogues as anticancer agents” (Eur J Med Chem, 2017).

Assays:
MCF7 = assay: Antiproliferative activity against human MCF7 cells after 48 hrs by MTT assay; format: functional, cell-based; conditions: MCF7, 48 h
MDA-MB-231 = assay: Antiproliferative activity against human MDA-MB-231 cells after 48 hrs by MTT assay; format: functional, cell-based; conditions: MDA-MB-231, 48 h

SMILES	IC50 (MCF7)	IC50 (MDA-MB-231)
CC[C@@H](C(=O)[C@@H](C)[C@@H](O)[C@H](C)[C@@H]1O[C@@H]([C@@H](CC)C(=O)OCc2cn(CCCCCCC(=O)O)nn2)CC[C@@H]1C)[C@H]1O[C@]2(C=C[C@@H](O)[C@]3(CC[C@@](C)([C@H]4CC[C@](O)(CC)[C@H](C)O4)O3)O2)[C@H](C)C[C@@H]1C	16.3 µM	19.6 µM
CC[C@@H](C(=O)[C@@H](C)[C@@H](O)[C@H](C)[C@@H]1O[C@@H]([C@@H](CC)C(=O)O)CC[C@@H]1C)[C@H]1O[C@]2(C=C[C@@H](OC(=O)Cn3cc(CCCC(=O)O)nn3)[C@]3(CC[C@@](C)([C@H]4CC[C@](O)(CC)[C@H](C)O4)O3)O2)[C@H](C)C[C@@H]1C	3.66 µM	1.94 µM
CC[C@@H](C(=O)[C@@H](C)[C@@H](O)[C@H](C)[C@@H]1O[C@@H]([C@@H](CC)C(=O)OCc2cn(CCCCC(=O)O)nn2)CC[C@@H]1C)[C@H]1O[C@]2(C=C[C@@H](O)[C@]3(CC[C@@](C)([C@H]4CC[C@](O)(CC)[C@H](C)O4)O3)O2)[C@H](C)C[C@@H]1C	19.9 µM	26.2 µM
CC[C@@H](C(=O)[C@@H](C)[C@@H](O)[C@H](C)[C@@H]1O[C@@H]([C@@H](CC)C(=O)OCc2cn(CCC(=O)O)nn2)CC[C@@H]1C)[C@H]1O[C@]2(C=C[C@@H](O)[C@]3(CC[C@@](C)([C@H]4CC[C@](O)(CC)[C@H](C)O4)O3)O2)[C@H](C)C[C@@H]1C	37.3 µM	87.4 µM
CC[C@@H](C(=O)[C@@H](C)[C@@H](O)[C@H](C)[C@@H]1O[C@@H]([C@@H](CC)C(=O)OCc2cn(CCCCCCCCCCC(=O)O)nn2)CC[C@@H]1C)[C@H]1O[C@]2(C=C[C@@H](O)[C@]3(CC[C@@](C)([C@H]4CC[C@](O)(CC)[C@H](C)O4)O3)O2)[C@H](C)C[C@@H]1C	3.64 µM	4.31 µM
CC[C@@H](C(=O)[C@@H](C)[C@@H](O)[C@H](C)[C@@H]1O[C@@H]([C@@H](CC)C(=O)OCc2cn(CC(=O)O)nn2)CC[C@@H]1C)[C@H]1O[C@]2(C=C[C@@H](O)[C@]3(CC[C@@](C)([C@H]4CC[C@](O)(CC)[C@H](C)O4)O3)O2)[C@H](C)C[C@@H]1C	13.7 µM	> 100 µM
CC[C@@H](C(=O)[C@@H](C)[C@@H](O)[C@H](C)[C@@H]1O[C@@H]([C@@H](CC)C(=O)OCc2cn(CCCCCC(=O)O)nn2)CC[C@@H]1C)[C@H]1O[C@]2(C=C[C@@H](O)[C@]3(CC[C@@](C)([C@H]4CC[C@](O)(CC)[C@H](C)O4)O3)O2)[C@H](C)C[C@@H]1C	36.3 µM	44.1 µM
CC[C@@H](C(=O)[C@@H](C)[C@@H](O)[C@H](C)[C@@H]1O[C@@H]([C@@H](CC)C(=O)OCc2cn(CCCC(=O)O)nn2)CC[C@@H]1C)[C@H]1O[C@]2(C=C[C@@H](O)[C@]3(CC[C@@](C)([C@H]4CC[C@](O)(CC)[C@H](C)O4)O3)O2)[C@H](C)C[C@@H]1C	41.2 µM	52.1 µM
CC[C@@H](C(=O)[C@@H](C)[C@@H](O)[C@H](C)[C@@H]1O[C@@H]([C@@H](CC)C(=O)O)CC[C@@H]1C)[C@H]1O[C@]2(C=C[C@@H](O)[C@]3(CC[C@@](C)([C@H]4CC[C@](O)(CC)[C@H](C)O4)O3)O2)[C@H](C)C[C@@H]1C [SALINOMYCIN]	2.98 µM	6.42 µM

More lines, now with the values ahead:

IC50 (MCF7)	IC50 (MDA-MB-231)	SMILES
0.74 µM	4.66 µM	CC[C@@H](C(=O)[C@@H](C)[C@@H](O)[C@H](C)[C@@H]1O[C@@H]([C@@H](CC)C(=O)O)CC[C@@H]1C)[C@H]1O[C@]2(C=C[C@@H](OC(=O)Cn3cc(COCc4cn(CC(=O)O[C@@H]5C=C[C@]6(O[C@H]([C@@H](CC)C(=O)[C@@H](C)[C@@H](O)[C@H](C)[C@@H]7O[C@@H]([C@@H](CC)C(=O)O)CC[C@@H]7C)[C@@H](C)C[C@H]6C)O[C@@]56CC[C@@](C)([C@H]5CC[C@](O)(CC)[C@H](C)O5)O6)nn4)nn3)[C@]3(CC[C@@](C)([C@H]4CC[C@](O)(CC)[C@H](C)O4)O3)O2)[C@H](C)C[C@@H]1C
1.65 µM	3.33 µM	CC[C@@H](C(=O)[C@@H](C)[C@@H](O)[C@H](C)[C@@H]1O[C@@H]([C@@H](CC)C(=O)O)CC[C@@H]1C)[C@H]1O[C@]2(C=C[C@@H](OC(=O)Cn3cc(-c4cccc(N)c4)nn3)[C@]3(CC[C@@](C)([C@H]4CC[C@](O)(CC)[C@H](C)O4)O3)O2)[C@H](C)C[C@@H]1C
3.34 µM	2.72 µM	CC[C@@H](C(=O)[C@@H](C)[C@@H](O)[C@H](C)[C@@H]1O[C@@H]([C@@H](CC)C(=O)O)CC[C@@H]1C)[C@H]1O[C@]2(C=C[C@@H](OC(=O)Cn3cc(CO)nn3)[C@]3(CC[C@@](C)([C@H]4CC[C@](O)(CC)[C@H](C)O4)O3)O2)[C@H](C)C[C@@H]1C
2.12 µM	4.72 µM	CC[C@@H](C(=O)[C@@H](C)[C@@H](O)[C@H](C)[C@@H]1O[C@@H]([C@@H](CC)C(=O)O)CC[C@@H]1C)[C@H]1O[C@]2(C=C[C@@H](OC(=O)Cn3cc(CCO)nn3)[C@]3(CC[C@@](C)([C@H]4CC[C@](O)(CC)[C@H](C)O4)O3)O2)[C@H](C)C[C@@H]1C
0.6 µM	6.69 µM	CC[C@@H](C(=O)[C@@H](C)[C@@H](O)[C@H](C)[C@@H]1O[C@@H]([C@@H](CC)C(=O)O)CC[C@@H]1C)[C@H]1O[C@]2(C=C[C@@H](OC(=O)Cn3cc(COCCOC(=O)c4cn(CC(=O)O[C@@H]5C=C[C@]6(O[C@H]([C@@H](CC)C(=O)[C@@H](C)[C@@H](O)[C@H](C)[C@@H]7O[C@@H]([C@@H](CC)C(=O)O)CC[C@@H]7C)[C@@H](C)C[C@H]6C)O[C@@]56CC[C@@](C)([C@H]5CC[C@](O)(CC)[C@H](C)O5)O6)nn4)nn3)[C@]3(CC[C@@](C)([C@H]4CC[C@](O)(CC)[C@H](C)O4)O3)O2)[C@H](C)C[C@@H]1C
0.91 µM	4.06 µM	CC[C@@H](C(=O)[C@@H](C)[C@@H](O)[C@H](C)[C@@H]1O[C@@H]([C@@H](CC)C(=O)O)CC[C@@H]1C)[C@H]1O[C@]2(C=C[C@@H](OC(=O)Cn3cc(COCCOCc4cn(CC(=O)O[C@@H]5C=C[C@]6(O[C@H]([C@@H](CC)C(=O)[C@@H](C)[C@@H](O)[C@H](C)[C@@H]7O[C@@H]([C@@H](CC)C(=O)O)CC[C@@H]7C)[C@@H](C)C[C@H]6C)O[C@@]56CC[C@@](C)([C@H]5CC[C@](O)(CC)[C@H](C)O5)O6)nn4)nn3)[C@]3(CC[C@@](C)([C@H]4CC[C@](O)(CC)[C@H](C)O4)O3)O2)[C@H](C)C[C@@H]1C
1.86 µM	6.48 µM	CC[C@@H](C(=O)[C@@H](C)[C@@H](O)[C@H](C)[C@@H]1O[C@@H]([C@@H](CC)C(=O)O)CC[C@@H]1C)[C@H]1O[C@]2(C=C[C@@H](OC(=O)Cn3cc(C(=O)O)nn3)[C@]3(CC[C@@](C)([C@H]4CC[C@](O)(CC)[C@H](C)O4)O3)O2)[C@H](C)C[C@@H]1C
2.03 µM	3.13 µM	CC[C@@H](C(=O)[C@@H](C)[C@@H](O)[C@H](C)[C@@H]1O[C@@H]([C@@H](CC)C(=O)O)CC[C@@H]1C)[C@H]1O[C@]2(C=C[C@@H](OC(=O)Cn3cc(CCC(=O)O)nn3)[C@]3(CC[C@@](C)([C@H]4CC[C@](O)(CC)[C@H](C)O4)O3)O2)[C@H](C)C[C@@H]1C
0.71 µM	9.01 µM	CC[C@@H](C(=O)[C@@H](C)[C@@H](O)[C@H](C)[C@@H]1O[C@@H]([C@@H](CC)C(=O)O)CC[C@@H]1C)[C@H]1O[C@]2(C=C[C@@H](OC(=O)Cn3cc(CCOC(=O)c4cn(CC(=O)O[C@@H]5C=C[C@]6(O[C@H]([C@@H](CC)C(=O)[C@@H](C)[C@@H](O)[C@H](C)[C@@H]7O[C@@H]([C@@H](CC)C(=O)O)CC[C@@H]7C)[C@@H](C)C[C@H]6C)O[C@@]56CC[C@@](C)([C@H]5CC[C@](O)(CC)[C@H](C)O5)O6)nn4)nn3)[C@]3(CC[C@@](C)([C@H]4CC[C@](O)(CC)[C@H](C)O4)O3)O2)[C@H](C)C[C@@H]1C
1.23 µM	4.09 µM	CC[C@@H](C(=O)[C@@H](C)[C@@H](O)[C@H](C)[C@@H]1O[C@@H]([C@@H](CC)C(=O)O)CC[C@@H]1C)[C@H]1O[C@]2(C=C[C@@H](OC(=O)Cn3cc(COCCO)nn3)[C@]3(CC[C@@](C)([C@H]4CC[C@](O)(CC)[C@H](C)O4)O3)O2)[C@H](C)C[C@@H]1C
1.88 µM	5.83 µM	CC[C@@H](C(=O)[C@@H](C)[C@@H](O)[C@H](C)[C@@H]1O[C@@H]([C@@H](CC)C(=O)O)CC[C@@H]1C)[C@H]1O[C@]2(C=C[C@@H](OC(=O)CCl)[C@]3(CC[C@@](C)([C@H]4CC[C@](O)(CC)[C@H](C)O4)O3)O2)[C@H](C)C[C@@H]1C
